Measurements: patent US20040071768A1, “Compositions and methods for treating cancer” (Inex Pharmaceuticals Corporation, priority 1999, published 2004)
Where two headings read alike, the source gives them in different places.

Legend:
[1] = tested on: LX-1 small cell lung xenografts; assay: Single dose anti-tumor activity, LX-1 small cell lung xenograft; assay type: in vivo
Method: Female NCr nude mice were injected intravenously via the lateral tail vein on day 11 post-tumor-implantation with saline (♦), NVB at 25.5 mg/kg (◯), or NVB-TCS at 15.0 mg/kg (●) and 11.0 mg/kg (▪) at a drug-to-lipid ratio of 0.3:1 (w/w). The arrow on the x-axis denotes the day of drug administration. Data points represent mean±SEM (n=7).
(§1) Vinorelbine is used clinically in the treatment of advanced NSCLC and metastatic breast cancer.
(§2) Tumor models investigated included RXF393 (renal), MX-1 (breast), LX-1 (small cell lung cancer), PC-3 (prostate), and HT29 (colon). These models were known to be sensitive to vinorelbine. Tumor fragments were implanted subcutaneously in the flank of NCr nu/nu mice. […] Animal weights and tumor size were determined twice weekly.

[2] = mice; cited from earlier work
[3] = for DRD: ICR
Method: Single and multiple (q7dx3) dose MTD studies were performed in tumor-bearing and non-tumor bearing NCr nu/nu mice, as well as healthy, outbred ICR mice.
A comparative (VRL vs. liposomal VRL) toxicity study was performed in healthy, outbred ICR mice.
Parameters evaluated throughout the study included animal weight loss, physical appearance and behavioral changes, blood analysis (CBC and serum chemistry panel), hematopoietic progenitor cell levels in femur bone marrow, and organ weights and gross pathology. Tissues were collected and stored for histology as required.

[4] = tested on: MDA-MB-435 breast xenografts
Method: Female NCr nude mice were injected intravenously (q7dx3, beginning day 15) via the lateral tail vein. […] Paclitaxel (⋄) was prepared in […]/12.5% ethanol/75% saline and injected iv (q1dx5) at a dose of 15 mg/kg/dose. Drug-to-lipid ratio was 0.3/1 (w/w). Data points represent median tumor volume (n=6).
The anti-tumor activity of multiple (q7d3) dose schedules of liposomal vinorelbine was evaluated in several human xenograft tumor models. The goal of this series of studies was to identify the benefits of encapsulation by evaluating a series of doses and determining the therapeutic index in several xenograft models. Models were selected based on the following criteria: (1) activity in the single dose studies, (2) a comprehensive literature review of vinca alkaloid efficacy, (3) a desire to include at least 2-3 models that represent the clinical use of vinorelbine, and (4) a desire to include models with a range of sensitivity to vinorelbine so that improvements resulting from the use of the liposome formulation might be identified. Based on these criteria, MX-1 and MDA-MB-435 breast models, the NCl-H460 NSCLC model and the HT-29 and DLD-1 colon models were chosen.
Therapeutic index (TI) is a parameter that quantifies the “safety factor” of a particular therapy. TI is a ratio of a toxicity parameter and a biological activity parameter. Therefore, a higher ratio represents a greater potential margin of safety. For these studies, TI is defined as follows: […]
The minimal effective dose (MED) was set according to NCl activity criteria as the dose resulting in an optimal % T/C of 40. This information was derived from Table 7.

MX-1 breast xenografts = assay: Single dose anti-tumor activity, MX-1 breast xenograft; assay type: in vivo
Method: Female NCr nude mice were injected intravenously via the lateral tail vein on day 8 post-tumor-implantation with saline (♦), NVB at 34.0 mg/kg (◯) and 25.5 mg/kg (□), or NVB-TCS at 15.0 mg/kg (●) and 11.0 mg/kg (▪) at a drug-to-lipid ratio of 0.3:1 (w/w). The arrow on the x-axis denotes the day of drug administration. Data points represent mean±SEM (n=10). […]
as §2

[5] = cited from earlier work
PC3 prostate xenografts = assay: Single dose anti-tumor activity, PC3 prostate xenograft; assay type: in vivo; settings: PC-3
Method: Male NCr nude mice were injected intravenously via the lateral tail vein on day 9 post-tumor-implantation with saline (♦), NVB at 45.0 mg/kg (◯) and 34.0 mg/kg (□), or NVB-TCS at 15.0 mg/kg (●) and 11.0 mg/kg (▪) at a drug-to-lipid ratio of 0.3:1 (w/w). The arrow on the x-axis denotes the day of drug administration. Data points represent mean±SEM (n=10).
as §1, §2

[6] = clinical hematological toxicity

## CCC1=C[C@@H]2CN(C1)Cc1c([nH]c3ccccc13)[C@@](C(=O)OC)(c1cc3c(cc1OC)N(C)[C@H]1[C@@](O)(C(=O)OC)[C@H](OC(C)=O)[C@]4(CC)C=CCN5CC[C@]31[C@@H]54)C2 [VRL, 5′-noranhydrovinblastine]
[1]; single i.v. dose 25.5 mg/kg
  % T/C (optimal % T/C following final treatment): 23%
  DRD (drug related deaths): 0/6
  NCI Score: 1
  T-C (tumor growth delay to 1000 mm^3): 7
  TF (tumor free animals at the end of study): 0/6
[1]; single i.v. dose 34 mg/kg
  % T/C (optimal % T/C following final treatment): Toxic
  DRD (drug related deaths): 7/7
[1]; single i.v. dose 45 mg/kg
  % T/C (optimal % T/C following final treatment): Toxic
  DRD (drug related deaths): 7/7
[2]
  published LD50: 34 mg/kg
[3]; 5 mg/kg q7d x 3
  DRD: 0/15
[3]; 10 mg/kg q7d x 3
  DRD: 0/15
[3]; 20 mg/kg q7d x 3
  DRD: 0/15
[3]; 25 mg/kg q7d x 3
  DRD: 1/15
[3]; mouse, in vivo
  Granulocytopenia: significant
  neutrophil population: almost completely abolished
  spleen weights: Decreased spleen weights
[3]; mouse, in vivo, 5 mg/kg
  Max % Wt Loss: +
[3]; mouse, in vivo, 10 mg/kg
  Max % Wt Loss: −3%
[3]; mouse, in vivo, 20 mg/kg
  Max % Wt Loss: −3%
[3]; mouse, in vivo, 25 mg/kg
  Max % Wt Loss: −5%
[4]; 5 mg/kg i.v. q7dx3
  % T/C (optimal % T/C following final treatment): −3%
  DRD (drug related deaths, n = 6): 0
  NCI Score: 2
  T-C (tumor growth delay to 1000 mm^3): 37.5
[4]; 5 mg/kg i.v. q7dx3, n=6
  TF (tumor free animals at the end of study): 0
[4]; 10 mg/kg i.v. q7dx3
  % T/C (optimal % T/C following final treatment): −100%
  DRD (drug related deaths, n = 6): 0
  NCI Score: 3
  T-C (tumor growth delay to 1000 mm^3): >62
[4]; 10 mg/kg i.v. q7dx3, n=6
  TF (tumor free animals at the end of study): 1
[4]; 20 mg/kg i.v. q7dx3
  % T/C (optimal % T/C following final treatment): −100%
  DRD (drug related deaths, n = 6): 2
  NCI Score: 4
  T-C (tumor growth delay to 1000 mm^3): >62
[4]; 20 mg/kg i.v. q7dx3, n=6
  TF (tumor free animals at the end of study): 4
[4]; 30 mg/kg i.v. q7dx3
  % T/C (optimal % T/C following final treatment): −100%
  DRD (drug related deaths, n = 6): 1
  NCI Score: 4
  T-C (tumor growth delay to 1000 mm^3): >62
[4]; 30 mg/kg i.v. q7dx3, n=6
  TF (tumor free animals at the end of study): 3
MX-1 breast xenografts; single i.v. dose 25.5 mg/kg
  % T/C (optimal % T/C following final treatment): 13%
  DRD (drug related deaths): 1/10
  MWL (maximum mean weight loss per treatment group): −14.8
  NCI Score: 1
  T-C (tumor growth delay to 1000 mm^3): 13
  TF (tumor free animals at the end of study): 1/9
MX-1 breast xenografts; single i.v. dose 34 mg/kg
  % T/C (optimal % T/C following final treatment): 11%
  DRD (drug related deaths): 0/10
  MWL (maximum mean weight loss per treatment group): −17.4
  NCI Score: 1
  T-C (tumor growth delay to 1000 mm^3): 16
  TF (tumor free animals at the end of study): 3/10
[5]; [6]
  anemia: 83%
  leukopenia: 92%
  thrombocytopenia: 5%
[5]; clinical
  Peripheral neuropathy: 25%
  phlebitis: 7%
PC3 prostate xenografts; single i.v. dose 34 mg/kg
  % T/C (optimal % T/C following final treatment): −3%
  DRD (drug related deaths): 2/10
  MWL (maximum mean weight loss per treatment group): −18.7
  NCI Score: 2
  T-C (tumor growth delay to 1000 mm^3): 34
  TF (tumor free animals at the end of study): 1/8
PC3 prostate xenografts; single i.v. dose 45 mg/kg
  % T/C (optimal % T/C following final treatment): Toxic
  DRD (drug related deaths): 5/10
  MWL (maximum mean weight loss per treatment group): −25.4
  TF (tumor free animals at the end of study): 4/5
